Reference: US5776718A, “Reversible protease inhibitors” (Arris Pharmaceutical Corporation, priority 1996, dated 1998)
Where two headings read alike, the source gives them in different places.

What was measured:
cathepsin B = cathepsin B (Homo sapiens, UniProt P07858); assay: Inhibition of cathepsin B, fluorogenic substrate Z-Arg-Arg-AMC; type: biochemical
Description: (§1) The assay at 250 was started by the addition of cat B (final concentration approx 10 nM) and the increase in fluorescence at 450 nm with excitation at 380 nm was followed over 2 min. The depression in the rate of substrate hydrolysis following addition of varying concentrations of inhibitors was noted. The assay was linear throughout the range observed. Duplicate runs were measured.
(§2) The respective Ki values were estimated by using the Dixon plot as described by Irwin Segel in Enzyme Kinetics: Behavior and analysis of rapid equilibrium and steady-state enzyme systems, 1975, Wiley-lnterscience Publication, John Wiley & Sons, New York.

cruzain = cruzain (Trypanosoma cruzi, UniProt P25779); assay: Inhibition of cruzain (conditions as for cathepsin L); type: biochemical, T. cruzi
Sequence of cruzain (P25779 123-467): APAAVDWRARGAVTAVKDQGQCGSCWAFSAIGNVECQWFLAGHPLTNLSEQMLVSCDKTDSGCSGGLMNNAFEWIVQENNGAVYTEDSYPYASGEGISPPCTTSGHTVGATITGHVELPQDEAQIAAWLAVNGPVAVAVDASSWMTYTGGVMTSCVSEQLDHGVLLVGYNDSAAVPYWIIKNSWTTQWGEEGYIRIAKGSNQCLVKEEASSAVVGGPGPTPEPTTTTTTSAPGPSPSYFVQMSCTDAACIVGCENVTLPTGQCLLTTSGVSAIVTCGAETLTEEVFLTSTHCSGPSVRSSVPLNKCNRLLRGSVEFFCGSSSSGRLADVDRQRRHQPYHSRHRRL
Description: (§3) Conditions for cathepsin L: 50 mM acetate, pH 5.5, 2.5 mM EDTA, 2.5 mM DTT. substrate: [Z-Phe-Arg-AMC]=[…] (Km=2 mM). The assay at 25^0 was started by the addition of cat L (final concentration approx 1 nM) and the increase in fluorescence at 450 nm with excitation at 380 nm was followed over 2 min. The depression in the rate of substrate hydrolysis following addition of varying concentrations of inhibitors was noted. The assay was linear throughout the range observed. Duplicate runs were measured.
Conditions for cruzain were the same as for cathepsin L with the exception that the Km for the substrate was 1 mM.
as §2

cathepsin L = cathepsin L (Homo sapiens, UniProt P07711); assay: Inhibition of cathepsin L, fluorogenic substrate Z-Phe-Arg-AMC; type: biochemical
Sequence of cathepsin L (P07711 114-333, species assumed): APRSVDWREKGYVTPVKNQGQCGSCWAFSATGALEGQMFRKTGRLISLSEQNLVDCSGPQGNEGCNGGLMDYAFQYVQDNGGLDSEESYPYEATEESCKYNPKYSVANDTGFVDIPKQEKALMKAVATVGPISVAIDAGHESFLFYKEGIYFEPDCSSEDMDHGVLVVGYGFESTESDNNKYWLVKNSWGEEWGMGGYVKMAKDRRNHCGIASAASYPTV
Description: as §3, §2

cathepsin S = cathepsin S (Homo sapiens, UniProt P25774); assay: Inhibition of cathepsin S, fluorogenic substrate Z-Val-Val-Arg-AMC; type: biochemical; details: 50 mM phosphate, pH 6.5, 2.5 mM EDTA, 2.5 mM DTT; Dixon plot
Sequence of cathepsin S (P25774 115-331, species assumed): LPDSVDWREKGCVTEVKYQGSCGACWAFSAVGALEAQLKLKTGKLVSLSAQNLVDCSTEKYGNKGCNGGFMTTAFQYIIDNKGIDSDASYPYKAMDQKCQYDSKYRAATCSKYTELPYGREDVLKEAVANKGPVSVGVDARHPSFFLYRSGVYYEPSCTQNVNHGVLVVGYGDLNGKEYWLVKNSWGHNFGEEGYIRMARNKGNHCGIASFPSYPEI
Description: as §1, with “S” for “B”, “[…])” for “10 nM)”
as §2

[1] = 50 mM phosphate, pH 6.0, 2.5 mM EDTA, 2.5 mM DTT, Dixon plot, read-out: cathepsin B (Ki μM)
[2] = 50 mM acetate, pH 5.5, 2.5 mM EDTA, 2.5 mM DTT, Km 1 mM, Dixon plot, read-out: cruzain (Ki μM)
[3] = 50 mM acetate, pH 5.5, 2.5 mM EDTA, 2.5 mM DTT, Dixon plot, read-out: cathepsin L (Ki μM)

SMILES | Ki (cathepsin B; [1]) [µM] | Ki (cruzain; [2]) [µM] | Ki (cathepsin L; [3]) [µM] | Ki (cathepsin S) [µM] | Ki (cathepsin B) [µM] | Ki (cruzain) [µM] | Ki (cathepsin L) [µM]
COC(=O)CCC(=O)N[C@@H](Cc1ccccc1)C(=O)N[C@@H](CCc1ccccc1)CCS(=O)(=O)c1ccccc1 [MeOSuc--Phe--HphγSO2 Ph, methyl 3-{2-phenyl-1S-[3-phenyl-1S-(2-phenylsulfonylethyl)propylcarbamoyl]ethylcarbamoyl}propionate] | 81 | 4.7 | 3.2 |  |  |  | 
CC(C)C[C@H](NC(=O)N1CCOCC1)C(=O)NC(CCc1ccccc1)S(=O)(=O)Cc1ccccc1 (stereo partly drawn) [Mu--Leu--HphαSO2 Bzl, N^2-(4-morpholinylcarbonyl)-N^1-(3-phenyl-1-benzylsulfonylpropyl)-L-leucinamide] | 54 | 0.76 | 0.6 | 4.2 |  |  | 
CC(C)C[C@H](NC(=O)N1CCOCC1)C(=O)NC(CCc1ccccc1)S(=O)(=O)c1ccccc1 (stereo partly drawn) [Mu--Leu--HphαSO2 Ph, N^2-(4-morpholinylcarbonyl)-N^1-(3-phenyl-1-phenylsulfonylpropyl)-L-leucinamide] | 16 | 0.27 | 1.3 | 1.6 |  |  | 
O=C(N[C@@H](CCc1ccccc1)CCS(=O)(=O)c1ccc2ccccc2c1)[C@H](Cc1ccc2ccccc2c1)NC(=O)N1CCOCC1 [Mu--Np2-HphγSO2 Np, N^2-(4-morpholinylcarbonyl)-N^1 -{3-phenyl-1S-[2-(2-naphthylsulfonyl)ethyl]propyl}-β-(2-naphthyl)-L-alaninamide] | 20 | 0.1 | 0.26 |  |  |  | 
O=C(NC(CCc1ccccc1)S(=O)(=O)c1ccccc1)[C@H](Cc1ccccc1)NC(=O)N1CCOCC1 (stereo partly drawn) [Mu--Phe--(DL)HphαSO2 Ph, N^2-(4-morpholinylcarbonyl)-N^1-(3-phenyl-1-phenylsulfonylpropyl)-L-phenylalaninamide] | 3000 | 15 | 13 | 5 |  |  | 
O=C(NC(CCc1ccccc1)S(=O)(=O)c1ccccc1)[C@H](Cc1ccccc1)NC(=O)N1CCOCC1 (stereo partly drawn) [Mu--Phe--(DL)HphαSO2 Ph,] |  |  |  | 3.7 |  |  | 
Nc1ccc(CC[C@H](CCc2ccccc2)NC(=O)[C@H](Cc2ccccc2)NC(=O)N2CCOCC2)cc1 [Mu--Phe--Hph--γPh--NH2, N^2-(4-morpholinylcarbonyl)-N^1 -{3-phenyl-1S-[2-(4-aminophenyl)ethyl]propyl}-L-phenylalaninamide] |  | 3 | 2.9 |  |  |  | 
COc1ccc(CC[C@H](CCc2ccccc2)NC(=O)[C@H](Cc2ccccc2)NC(=O)N2CCOCC2)cc1 [Mu--Phe--Hph-γPh--OMe, N^2-(4-morpholinylcarbonyl)-N^1 -{3-phenyl-1S-[2-(4-methoxyphenyl)ethyl]propyl}-L-phenylalaninamide] | 4.8 | 0.89 | 0.94 |  |  |  | 
O=C(NC(CCc1ccccc1)S(=O)(=O)Cc1ccccc1)[C@H](Cc1ccccc1)NC(=O)N1CCOCC1 (stereo partly drawn) [Mu--Phe--HphαSO2 Bzl, N^2-(4-morpholinylcarbonyl)-N^1-(3-phenyl-1-benzylsulfonylpropyl)-L-phenylalaninamide] | 77 | 0.92 | 1.2 |  |  |  | 
O=C(NC(CCc1ccccc1)S(=O)(=O)CF)[C@H](Cc1ccccc1)NC(=O)N1CCOCC1 (stereo partly drawn) [Mu--Phe--HphαSO2 CH2 F, N^2-(4-morpholinylcarbonyl)-N^1-(3-phenyl-1-fluoromethylsulfonylpropyl)-L-phenylalaninamide] | 170 | 2 | 1.5 | 2.8 |  |  | 
O=C(NC(CCc1ccccc1)S(=O)(=O)C(F)(F)F)[C@H](Cc1ccccc1)NC(=O)N1CCOCC1 (stereo partly drawn) [Mu--Phe--HphαSO2 CR3, N^2-(4-morpholinylcarbonyl)-N^1-(3-phenyl-1-trifluoromethylsulfonylpropyl)-L-phenylalaninamide] | 50 | 0.23 | 0.18 |  |  |  | 
O=C(N[C@@H](CCc1ccccc1)S(=O)(=O)c1ccccc1)[C@H](Cc1ccccc1)NC(=O)N1CCOCC1 [Mu--Phe--HphαSO2 Ph] |  |  |  | 2.6 |  |  | 
O=C(N[C@@H](CCc1ccccc1)CS(=O)(=O)c1ccccc1)[C@H](Cc1ccccc1)NC(=O)N1CCOCC1 [Mu--Phe--HphβSO2 Ph, N^1-(4-morpholinylcarbonyl)-N^1-(3-phenyl-1S-phenylsulfonylmethylpropyl)-L-phenylalaniamide] | 1100 | 5.7 | 29 |  |  |  | 
CCOC(=O)CC[C@H](CCc1ccccc1)NC(=O)[C@H](Cc1ccccc1)NC(=O)N1CCOCC1 [Mu--Phe--HphγCO2 Et, ethyl 4S-[N-(4-morpholinylcarbonyl)-L-phenylalanylamino]-6-phenylhexanoate] | 1.6 | 0.91 | 0.48 |  |  |  | 
O=C(CC[C@H](CCc1ccccc1)NC(=O)[C@H](Cc1ccccc1)NC(=O)N1CCOCC1)NCc1ccccc1 [Mu--Phe--HphγCONHBzl, N^2-(4-morpholinylcarbonyl)-N^1-[3-phenyl-1S-(2-benzylcarbamoylethyl)propyl]-L-phenylalaninamide] |  | 7.7 | 19 |  |  |  | 
O=C(CC[C@H](CCc1ccccc1)NC(=O)[C@H](Cc1ccccc1)NC(=O)N1CCOCC1)Nc1ccccc1 [Mu--Phe--HphγCONHPh, N^2-(4-morpholinylcarbonyl)-N^1-[3-phenyl-1S-(2-phenylcarbamoylethyl)propyl]-L-phenylalaninamide] | 2.6 | 0.13 | 2 |  |  |  | 
CCOP(=O)(CC[C@H](CCc1ccccc1)NC(=O)[C@H](Cc1ccccc1)NC(=O)N1CCOCC1)OCC [Mu--Phe--HphγPO(O2 Et)2] |  |  |  |  | 17 | 15 | 3
O=C(N[C@@H](CCc1ccccc1)CCS(=O)(=O)CCc1ccccc1)[C@H](Cc1ccccc1)NC(=O)N1CCOCC1 [Mu--Phe--HphγSO2 EtPh, N^2-(4-morpholinylcarbonyl)-N^1 -{3-phenyl-1S-[2-(2-phenylethylsulfonyl)ethyl]propyl}-L-phenylalaninamide] |  | 5.9 | 0.17 |  |  |  | 
O=C(N[C@@H](CCc1ccccc1)CCS(=O)(=O)c1ccccc1)[C@H](Cc1ccccc1)NC(=O)N1CCOCC1 [Mu--Phe--HphγSO2 Ph, N^2-(4-morpholinylcarbonyl)-N^1-[3-phenyl-1S-(2-phenylsulfonylethyl)propyl]-L-phenylalaninamide] | 48 | 4.3 | 10 |  |  |  | 
O=C(N[C@@H](CCc1ccccc1)CCS(=O)(=O)c1ccccc1)[C@H](Cc1ccc(O)cc1)NC(=O)N1CCOCC1 [Mu--Tyr--HphγSO2 Ph, (S)-3-(4-morpholinecarbonyltyrosyl)-amino-5-phenyl-1-phenylsulfonylpentane] |  |  | 2.3 |  |  | 20 | 
O=C(Cc1ccccc1)N[C@@H](Cc1ccccc1)C(=O)N[C@@H](CCc1ccccc1)CCS(=O)(=O)c1ccccc1 [Phac--Phe--HphγSO2 Ph, N^2-phenylacetyl-N^1-[3-phenyl-1S-(2-phenylsulfonylethyl)propyl]-L-phenylalaninamide] | > 10 | 1.8 | 0.41 |  |  |  | 
O=C(O)CCC(=O)N[C@@H](Cc1ccc2ccccc2c1)C(=O)N[C@@H](CCc1ccccc1)CCS(=O)(=O)c1ccc2ccccc2c1 [Suc--Np2--HphγSO2 2Np] | > 1000 | 0.23 | 0.11 |  |  |  | 
O=C(O)CCC(=O)N[C@@H](Cc1ccc2ccccc2c1)C(=O)N[C@@H](CCc1ccccc1)CCS(=O)(=O)c1ccccc1 [Suc--Np2--HphγSO2 Ph, 3-{2-naphthyl-1S-[3-phenyl-1S-(2-phenylsulfonylethyl)propylcarbamoyl]ethylcarbamoyl}propionic acid] | > 1000 | 0.78 | 2.3 |  |  |  | 
O=C(O)CCC(=O)N[C@@H](Cc1ccccc1)C(=O)N[C@@H](CCc1ccccc1)CCS(=O)(=O)c1ccccc1 [Suc--Phe--HphγSO2 Ph, 3-{2-phenyl-1S-[3-phenyl-1S-(2-phenylsulfonylethyl)propylcarbamoyl]ethylcarbamoyl}propionic acid] | > 1000 | 1.5 | 1 |  |  |  | 
O=C(CCNC(=O)OCc1ccccc1)N[C@@H](Cc1ccccc1)C(=O)N[C@@H](CCc1ccccc1)CCS(=O)(=O)c1ccccc1 [Z--β-Ala--Phe--HphγSO2 Ph, M-(N-benzyloxycarbonyl-β-alanyl)-N^1-[3-phenyl-1S-(2-phenylsulfonylethyl)propyl]-L-phenylalaninamide] | 52 | 0.54 | 0.79 |  |  |  | 
NCCC(=O)N[C@@H](Cc1ccccc1)C(=O)N[C@@H](CCc1ccccc1)CCS(=O)(=O)c1ccccc1 [β-Ala--Phe--HphγSO2 Ph, N^2-(β-alanyl)-N^1-[3-phenyl-1S-(2-phenylsulfonylethyl)propyl]-L-phenylalaninamide] |  | 14 | 14 |  |  |  | 
